Experimental data taken from patent US20240381872A1, “SUBSTITUTED 2,3-DIHYDRO[1,3]THIAZOLO[4,5-B]PYRIDINES, SALTS THEREOF AND THEIR USE AS HERBICIDALLY ACTIVE SUBSTANCES” (BAYER AKTIENGESELLSCHAFT, priority 2021, published 2024).

Columns and labels:
Type in all cases: in vivo
Stellaria media (STEME) [1] = assay: Herbicidal post-emergence action, section B (Table B9); settings: Stellaria media, post-emergence, 504 h, visual rating about 3 weeks after treatment vs untreated controls, read-out: post-emergence activity against STEME in %
Summary of the method: (§1)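 Greenhouse post-emergence spray on one-leaf-stage plants (sown in sandy loam, 2 to 3 weeks old). WP/EC formulations in water + 0.5% additive, 600 liters per hectare. Read-out: visual % activity vs untreated, ~3 weeks after treatment; 100% = dead, 0% = as control.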

Lolium rigidum (LOLRI) [2] = assay: Herbicidal post-emergence action, section B (Table B5); settings: Lolium rigidum, post-emergence, 504 h; application rate 1280 g/ha; visual rating about 3 weeks after treatment vs untreated controls; read-out: post-emergence activity against LOLRI in %
Method: (§2) Seeds of mono- and dicotyledonous weed plants were placed in plastic pots in sandy loam soil (doubly sown with in each case one species of mono- or dicotyledonous weed plants per pot), covered with soil and cultivated in a greenhouse under controlled growth conditions. 2 to 3 weeks after sowing, the test plants were treated at the one-leaf stage. The compounds of the invention, formulated in the form of wettable powders (WP) or as emulsion concentrates (EC), were applied onto the green parts of the plants as aqueous suspension or emulsion with addition of 0.5% additive at a water application rate of 600 liters per hectare (converted). After the test plants had been kept in the greenhouse under optimum growth conditions for about 3 weeks, the activity of the preparations was rated visually in comparison to untreated controls. For example, 100% activity=the plants have died, 0% activity=like control plants.

Veronica persica (VERPE) [3] = assay: Herbicidal pre-emergence action, section A (Table A10); settings: Veronica persica, 504 h, application rate 320 g/ha, read-out: pre-emergence activity against VERPE in %
Summary of the method: (§3)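 Sandy loam pots, seeds covered with soil, treated on the soil surface with aqueous WP or EC preparations containing 0.5% additive (600 l/ha). Visual damage rating after ca. 3 weeks in greenhouse; scale 0% (as control) to 100% (plants died off).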

Veronica persica (VERPE) [4] = assay: Herbicidal post-emergence action, section B (Table B10); settings: Veronica persica, post-emergence, 504 h, visual rating about 3 weeks after treatment vs untreated controls, read-out: post-emergence activity against VERPE in %
Summary of the method: as §1

Stellaria media (STEME) [5] = assay: Herbicidal pre-emergence action, section A (Table A9); settings: Stellaria media, 504 h, application rate 320 g/ha, read-out: pre-emergence activity against STEME in %
Summary of the method: as §3

Poa annua (POAAN) [6] = assay: Herbicidal pre-emergence action, section A (Table A7); settings: Poa annua, pre-emergence, 504 h; application rate 1280 g/ha; visual grading after ca. 3 weeks vs untreated controls; read-out: pre-emergence activity against POAAN in %
Summary of the method: as §3

[7] = test system: Matricaria inodora (MATIN); assay: Herbicidal pre-emergence action, section A (Table A6); settings: Tripleurospermum inodorum, pre-emergence, 504 h; application rate 1280 g/ha; visual grading after ca. 3 weeks vs untreated controls; read-out: pre-emergence activity against MATIN in %
Summary of the method: as §3

Kochia scoparia (KCHSC) [8] = assay: Herbicidal pre-emergence action, section A (Table A4); settings: Bassia scoparia, pre-emergence, 504 h; application rate 1280 g/ha; visual grading after ca. 3 weeks vs untreated controls; read-out: pre-emergence activity against KCHSC in %
Summary of the method: as §3

Setaria viridis (SETVI) [9] = assay: Herbicidal pre-emergence action, section A (Table A8); settings: Setaria viridis, 504 h, application rate 1280 g/ha, read-out: pre-emergence activity against SETVI in %
Summary of the method: as §3

Kochia scoparia (KCHSC) [10] = assay: Herbicidal post-emergence action, section B (Table B4); settings: Bassia scoparia, post-emergence, 504 h, visual rating about 3 weeks after treatment vs untreated controls, read-out: post-emergence activity against KCHSC in %
Summary of the method: as §1

[11] = test system: Echinochloa crus-galli (ECHCG); assay: Herbicidal post-emergence action, section B (Table B3); settings: Echinochloa crus-galli, 504 h, application rate 1280 g/ha, rated visually after about 3 weeks, read-out: post-emergence activity against ECHCG in %
Method: as §2

Poa annua (POAAN) [12] = assay: Herbicidal post-emergence action, section B (Table B7); settings: Poa annua, post-emergence, 504 h; application rate 320 g/ha; visual rating about 3 weeks after treatment vs untreated controls; read-out: post-emergence activity against POAAN in %
Summary of the method: as §1

[13] = test system: Amaranthus retroflexus (AMARE); assay: Herbicidal pre-emergence action, section A (Table A11); settings: Amaranthus retroflexus, 504 h, application rate 1280 g/ha, read-out: pre-emergence activity against AMARE in %
Summary of the method: as §3

Lolium rigidum (LOLRI) [14] = assay: Herbicidal pre-emergence action, section A (Table A5); settings: Lolium rigidum, pre-emergence, 504 h; application rate 1280 g/ha; visual grading after ca. 3 weeks vs untreated controls; read-out: pre-emergence activity against LOLRI in %
Summary of the method: as §3

[15] = test system: Echinochloa crus-galli (ECHCG); assay: Herbicidal pre-emergence action, section A (Table A3); settings: Echinochloa crus-galli, pre-emergence, 504 h, visual grading after ca. 3 weeks vs untreated controls, read-out: pre-emergence activity against ECHCG in %
Summary of the method: as §3

[16] = test system: Digitaria sanguinalis (DIGSA); assay: Herbicidal pre-emergence action, section A (Table A12); settings: Digitaria sanguinalis, 504 h, read-out: pre-emergence activity against DIGSA in %
Summary of the method: as §3

[17] = test system: Amaranthus retroflexus (AMARE); assay: Herbicidal post-emergence action, section B (Table B11); settings: Amaranthus retroflexus, post-emergence, 504 h; application rate 320 g/ha; visual rating about 3 weeks after treatment vs untreated controls; read-out: post-emergence activity against AMARE in %
Summary of the method: as §1

[18] = test system: Abutilon theophrasti (ABUTH); assay: Herbicidal post-emergence action, section B (Table B1); settings: Abutilon theophrasti, 504 h, application rate 1280 g/ha, rated visually after about 3 weeks, read-out: post-emergence activity against ABUTH in %
Method: as §2

Setaria viridis (SETVI) [19] = assay: Herbicidal post-emergence action, section B (Table B8); settings: Setaria viridis, post-emergence, 504 h; application rate 1280 g/ha; visual rating about 3 weeks after treatment vs untreated controls; read-out: post-emergence activity against SETVI in %
Method: as §2

[20] = test system: Digitaria sanguinalis (DIGSA); assay: Herbicidal post-emergence action, section B (Table B12); settings: Digitaria sanguinalis, post-emergence, 504 h; application rate 1280 g/ha; visual rating about 3 weeks after treatment vs untreated controls; read-out: post-emergence activity against DIGSA in %
Method: as §2

Cc1cscc1-c1nc2c(cc1C)[S+]([O-])CN2 (stereo not shown) [Example I-023]
pest or weed control at 1280 g/ha (Stellaria media (STEME) [1]; application rate 1280 g/ha): 90% | pest or weed control at 1280 g/ha (Lolium rigidum (LOLRI) [2]): 90% | pest or weed control at 320 g/ha (Veronica persica (VERPE) [3]): 90% | pest or weed control at 1280 g/ha (Veronica persica (VERPE) [4]; application rate 1280 g/ha): 90% | pest or weed control at 320 g/ha (Stellaria media (STEME) [5]): 90% | pest or weed control at 1280 g/ha (Poa annua (POAAN) [6]): 100% | pest or weed control at 1280 g/ha [7]: 90% | pest or weed control at 1280 g/ha (Kochia scoparia (KCHSC) [8]): 90% | pest or weed control at 1280 g/ha (Setaria viridis (SETVI) [9]): 100% | pest or weed control at 1280 g/ha (Kochia scoparia (KCHSC) [10]; application rate 1280 g/ha): 90% | pest or weed control at 1280 g/ha [11]: 90% | pest or weed control at 320 g/ha (Poa annua (POAAN) [12]): 90% | pest or weed control at 1280 g/ha [13]: 90% | pest or weed control at 1280 g/ha (Lolium rigidum (LOLRI) [14]): 100% | pest or weed control at 1280 g/ha ([15]; application rate 1280 g/ha): 100% | pest or weed control at 1280 g/ha ([16]; application rate 1280 g/ha): 100%

NB1OB(N2CSc3cc(Br)c(-c4ccccc4Cl)nc32)O1 [Example I-048, 4-[6-bromo-5-(2-chlorophenyl)-2,3-dihydro[1,3]thiazolo[4,5-b]pyridin-3(2H)-yl]-1,3,2,4-dioxa-diboretan-2-amine]
pest or weed control at 320 g/ha (Stellaria media (STEME) [1]; application rate 320 g/ha): 90% | pest or weed control at 1280 g/ha (Lolium rigidum (LOLRI) [2]): 90% | pest or weed control at 320 g/ha [17]: 90% | pest or weed control at 320 g/ha (Veronica persica (VERPE) [4]; application rate 320 g/ha): 90% | pest or weed control at 1280 g/ha [18]: 90% | pest or weed control at 1280 g/ha (Poa annua (POAAN) [6]): 100% | pest or weed control at 1280 g/ha [7]: 90% | pest or weed control at 1280 g/ha (Setaria viridis (SETVI) [19]): 90% | pest or weed control at 1280 g/ha [20]: 90% | pest or weed control at 1280 g/ha (Kochia scoparia (KCHSC) [8]): 90% | pest or weed control at 1280 g/ha (Setaria viridis (SETVI) [9]): 100% | pest or weed control at 320 g/ha (Kochia scoparia (KCHSC) [10]; application rate 320 g/ha): 90% | pest or weed control at 1280 g/ha [11]: 90% | pest or weed control at 320 g/ha (Poa annua (POAAN) [12]): 90% | pest or weed control at 1280 g/ha [13]: 90% | pest or weed control at 1280 g/ha (Lolium rigidum (LOLRI) [14]): 100% | pest or weed control at 320 g/ha ([15]; application rate 320 g/ha): 100% | pest or weed control at 320 g/ha ([16]; application rate 320 g/ha): 100%
